What was measured:
Assay in all cases: transient co-expression in N. benthamiana leaves, GC-MS of leaf extracts
Assay type in all cases: cell-based
Conditions in all cases: alpha-amyrin formed in situ by BfOSC3; co-expressed AtHMGR1cd-S577A and LjCPR2; C-28 oxidation
MtCYP716A12 [1] = biological target: T1, MtCYP716A12 (Medicago truncatula, UniProt Q2MJ20, D122Q)
T1 construct: gene CYP716A12; full-length; transient expression in N. benthamiana leaves (pBYR2HS)

MtCYP716A12 [2] = biological target: T2, MtCYP716A12 (Medicago truncatula, UniProt Q2MJ20, D122Q/Q358P)
T2 construct: gene CYP716A12; full-length; transient expression in N. benthamiana leaves (pBYR2HS)
T2 sequence (Q2MJ20 whole entry D122Q/Q358P, the tested form may be a part): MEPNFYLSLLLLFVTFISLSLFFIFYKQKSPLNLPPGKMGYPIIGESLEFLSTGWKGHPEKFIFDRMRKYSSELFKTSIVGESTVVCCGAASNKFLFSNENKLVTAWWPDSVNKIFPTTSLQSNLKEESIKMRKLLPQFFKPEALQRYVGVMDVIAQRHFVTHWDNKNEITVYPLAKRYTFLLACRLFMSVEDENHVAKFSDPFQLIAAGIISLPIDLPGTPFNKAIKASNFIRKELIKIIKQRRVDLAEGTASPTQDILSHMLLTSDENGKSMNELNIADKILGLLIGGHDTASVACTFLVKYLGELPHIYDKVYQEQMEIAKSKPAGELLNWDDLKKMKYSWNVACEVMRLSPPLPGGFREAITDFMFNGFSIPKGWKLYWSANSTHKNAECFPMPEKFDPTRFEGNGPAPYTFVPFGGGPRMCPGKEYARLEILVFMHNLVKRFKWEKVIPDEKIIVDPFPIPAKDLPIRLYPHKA

OeCYP716A48 = biological target: T3, OeCYP716A48 (Olea europaea, UniProt A0A090AQE0)
T3 construct: gene CYP716A48; full-length; transient expression in N. benthamiana leaves (pBYR2HS)
T3 sequence (A0A090AQE0 entry or part of it): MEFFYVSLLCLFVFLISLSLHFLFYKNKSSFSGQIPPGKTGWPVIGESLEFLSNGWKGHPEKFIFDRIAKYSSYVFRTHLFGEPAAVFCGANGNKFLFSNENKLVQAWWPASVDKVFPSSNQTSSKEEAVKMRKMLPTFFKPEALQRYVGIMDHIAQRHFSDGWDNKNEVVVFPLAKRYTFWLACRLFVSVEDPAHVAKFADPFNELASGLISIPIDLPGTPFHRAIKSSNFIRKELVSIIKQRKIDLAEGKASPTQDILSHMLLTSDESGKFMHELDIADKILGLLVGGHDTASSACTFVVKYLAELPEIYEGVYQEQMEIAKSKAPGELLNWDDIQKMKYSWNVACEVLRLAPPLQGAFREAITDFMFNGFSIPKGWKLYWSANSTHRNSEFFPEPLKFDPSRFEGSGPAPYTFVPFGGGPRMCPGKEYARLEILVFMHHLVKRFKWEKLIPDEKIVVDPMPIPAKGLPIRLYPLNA

MtCYP716A12 [3] = biological target: T4, MtCYP716A12 (Medicago truncatula, UniProt Q2MJ20)
T4 construct: gene CYP716A12; full-length; transient expression in N. benthamiana leaves (pBYR2HS)
T4 sequence (Q2MJ20 whole entry, the tested form may be a part): as the sequence (Q2MJ20 whole entry D122Q/Q358P, the tested form may be a part) above, with Q122D, P358Q counted along it

T1 sequence (Q2MJ20 whole entry D122Q, the tested form may be a part): as the sequence (Q2MJ20 whole entry D122Q/Q358P, the tested form may be a part) above, with P358Q counted along it

## C[C@H]1[C@H](C)CC[C@]2(C)CC[C@]3(C)C(=CC[C@@H]4[C@@]5(C)CC[C@H](O)C(C)(C)[C@@H]5CC[C@]43C)[C@H]12 [compound 1, α-amyrin]
MtCYP716A12 [1]
  transient co-expression in N. benthamiana leaves, GC-MS of leaf extracts: each of the candidate CYP716As were mixed and infiltrated into N. benthamiana leaves
MtCYP716A12 [2]
  transient co-expression in N. benthamiana leaves, GC-MS of leaf extracts: each of the candidate CYP716As were mixed and infiltrated into N. benthamiana leaves
OeCYP716A48
  transient co-expression in N. benthamiana leaves, GC-MS of leaf extracts: each of the candidate CYP716As were mixed and infiltrated into N. benthamiana leaves
MtCYP716A12 [3]
  transient co-expression in N. benthamiana leaves, GC-MS of leaf extracts: detected in the leaves expressing wild-type MtCYP716A12
